The structures appear in SMILES notation. Marks after values point to notes of the source that are not given here. A value given as a limit tells only on which side of the number the result lay.

The test system of data set [1] is PCP-induced hyperlocomotion in male NMRI mice. Description: Phencyclidine (PCP)-induced hyperlocomotion in mice (video tracking). It counts as in vivo. The note with it: for Mice ED50 (mg/kg) PCP-Inh., estimated ED50 (footnote a): estimated ED50 values (n = 3 per dose; 4-fold separation between doses). The procedure: Motor Activity (Video Tracking)
Apparatus and General Procedure
On the day of experiments, the mice were brought into the procedural room. They were housed individually and allowed to acclimate for at least a half hour prior to testing. Although the studies were conducted during the light cycle (from 8:00 to 16:00 h), the procedure room was only sparsely lit (3 to 30 LUX) to provide better contrast for the video tracking. Local lighting was used for the injection procedures. During each trial, an individual mouse was placed in an open field arena (grey PVC cylinder with a height of 40 cm and a diameter of 22.5 cm). Each arena was placed on an infrared LED (8×8 LEDs)-lit box (white PVC squared box; 40×40 cm^2; height 12.5 cm). Each mouse was placed in the center of the arena and allowed to explore freely for 30 min. After each trial, the arena was cleaned with a wet and subsequently with a dry cleaning cloth. An infrared sensitive tube camera and a white light source (in arena: 4-7 LUX) were mounted to the ceiling above the observation chamber to record and input activity to a computer. Animal behavior was recorded and analyzed using the Noldus Ethovision XT Video Tracking System (Version 3.1; Noldus, Wageningen, The Netherlands). The total distance traveled (cm) was calculated. Data were then exported to data management systems for further analysis and reporting.
Phencyclidine (PCP)-Induced Hyperlocomotion in Mice
Test compound or solvent was administered at a pre-defined time before measurement (standard: 30 min) to male NMRI mice that were challenged with phencyclidine (PCP; 5 mg/kg, s.c.) 30 min before measurement. Activity was measured for a period of 30 min.

In data set [2] the target is T1, human mGluR2 receptor (Homo sapiens, UniProt Q14416).
T1 construct: expressed in transfected cells; host or cells: CHO cells
T1 sequence (Q14416 19-872): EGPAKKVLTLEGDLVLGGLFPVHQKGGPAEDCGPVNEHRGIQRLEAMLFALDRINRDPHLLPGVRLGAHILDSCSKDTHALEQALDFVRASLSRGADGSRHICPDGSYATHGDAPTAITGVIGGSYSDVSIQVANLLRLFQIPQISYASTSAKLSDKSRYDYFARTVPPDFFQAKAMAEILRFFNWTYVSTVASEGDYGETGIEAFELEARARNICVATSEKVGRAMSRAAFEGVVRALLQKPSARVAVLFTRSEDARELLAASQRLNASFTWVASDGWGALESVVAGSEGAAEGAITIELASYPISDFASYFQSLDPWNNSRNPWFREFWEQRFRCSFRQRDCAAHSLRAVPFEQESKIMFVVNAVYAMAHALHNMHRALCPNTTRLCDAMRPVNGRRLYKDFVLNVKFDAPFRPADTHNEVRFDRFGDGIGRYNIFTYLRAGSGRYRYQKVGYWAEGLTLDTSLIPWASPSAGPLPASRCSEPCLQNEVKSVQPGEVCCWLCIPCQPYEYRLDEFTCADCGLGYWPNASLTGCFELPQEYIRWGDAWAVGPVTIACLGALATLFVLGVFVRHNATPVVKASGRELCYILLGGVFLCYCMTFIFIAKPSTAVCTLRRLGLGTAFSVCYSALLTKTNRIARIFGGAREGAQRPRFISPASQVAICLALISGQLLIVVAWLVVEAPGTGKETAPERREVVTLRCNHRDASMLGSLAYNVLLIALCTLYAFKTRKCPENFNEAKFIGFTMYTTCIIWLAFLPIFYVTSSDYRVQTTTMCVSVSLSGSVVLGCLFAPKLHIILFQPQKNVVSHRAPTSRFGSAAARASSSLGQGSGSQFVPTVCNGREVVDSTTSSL
The data set is described as follows: [35S]GTPγS binding assay, positive allosteric modulation (GTPγS-PAM) in presence of EC20 glutamate. It counts as biochemical. The note with it: in presence of glutamate at EC20, average pEC50 if more experiments, ‡ means tested once; for EC50: read-out: GTPγS - hR2 PAM pEC50 (converted). In outline:
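Membranes from butyrate-stimulated CHO cells expressing human mGluR2 (7 μg protein) preincubated 30 min at 30°C with compound plus ~EC20 glutamate in HEPES pH 7.4, 100 mM NaCl, 3 mM MgCl2, 10 μM GDP, 10 μg/ml saponin. [35S]GTPγS (0.1 nM) incorporation over 30 min at 30°C measured by filtration and scintillation counting.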
In general terms: GTPγS is a poorly hydrolysed GTP analogue; its binding reports G protein activation.

Data set [3] deals with conditioned avoidance response in male Wiga Wistar rats. The data set is described as follows: Conditioned avoidance response (CAR) test in rats. It counts as in vivo. As to conditions: for ED50: Rattus norvegicus, po, not marked * (not oral; injection per method); b) = estimated ED50 values (n = 3 per dose), read-out: ED50 (mg/kg) CAR-Inh. An excerpt:
Conditioned Avoidance Response (CAR) Test
The apparatus consisted of an inner box surrounded by an outer box. The inner box was composed of four walls of transparent, synthetic material (length×width×height: 30×30×30 cm), an open top, and a grid floor made of 15 pairs of iron bars (2 mm diameter; 6 mm inter-bar distance). Odd and even bars were connected with a source of alternative current (1.0 mA; Coulbourn Instruments Solid State Shocker/Distributor), which could be interrupted by a switch. The outer box was composed of the same material (length×width×height: 40×40×36 cm), also with an open top, with a distance of 5 cm between the inner and outer box on all sides. To decrease the amount of environmental stimuli, three walls of the outer box were made non-transparent. The front wall was left transparent to allow the necessary inspection of the animal during the test. The upper edge of the outer and inner box served as a target for the rats on which to jump with fore- and hind-paws, respectively.
Avoidance Conditioning and Selection of Animals
From their arrival in the laboratory on the experimental day, male Wiga Wistar rats (230±30 g) were housed in individual cages provided with bedding material.
Latency to avoidance was recorded. The median avoidance response obtained over the three experimental sessions for each rat were used for further calculations.

Setting [4] is: mice, inhibition of PCP-induced hyperlocomotion.

A word on the melting point: it is the temperature, or range, at which the solid turns liquid. As to `CC(c1ccn2c(CC3CC3)nnc2c1C(F)(F)F)N1CCC(c2ccccc2)CC1` (centres unmarked) [compound 244, 3-cyclopropylmethyl-7-[1-(4-phenyl-1-piperidinyl)ethyl]-8-trifluoromethyl-1,2,4-triazolo[4,3-a]pyridine], the melting point came out at 142.3 °C. The “Mice ED50 (mg/kg) PCP-Inh., estimated ED50 (footnote a)” value (from here on “Mice ED50 … (footnote a)”) in data set [1] (setting [4]) is given as 5.0 ^a) mg/kg. For the same compound, the EC50 in data set [2] is 24 nM.
With `FC(F)(F)c1c(CN2CCC(c3ccccc3)CC2)ccn2c(CC3CC3)nnc12` [compound 298, 3-(Cyclopropylmethyl)-7-[(4-phenyl-1-piperidinyl)methyl]-8-(trifluoromethyl)-1,2,4-triazolo[4,3-a]pyridine], in data set [3], the “inhibition of the conditioned avoidance response in rats (in words)” value is listed as “inhibited” and the ED50 was 5 mg/kg. Further, the “inhibition of PCP-induced hyperlocomotion in mice (in words)” value (shortened to “inhibition … in mice (in words)”) in data set [1] (mice) is reported as “inhibited”. Also, the “Mice ED50 … (footnote a)” value in data set [1] (setting [4]) is on record as 5.0 ^a) mg/kg.
Regarding `Brc1c(N2CCC(c3ccccc3)CC2)ccn2c(CC3CC3)nnc12` [compound 207, 8-Bromo-3-cyclopropylmethyl-7-[4-phenylpiperidin-1-yl]-[1,2,4]triazolo[4,3-a]pyridine], the melting point is 281.5 °C. In addition, the EC50 in data set [2] was 35.5 nM.
Consider `FC(F)(F)c1c(N2CCC3(CC2)COc2ccccc23)ccn2c(CC3CC3)nnc12` [compound 17, 1′-[3-cyclopropylmethyl-8-(trifluoromethyl)[1,2,4]triazolo[4,3-a]pyridin-7-yl]-spiro[1-benzofuran-3,4′-piperidine]], for which the melting point is over 300 °C. In addition, the ED50 in data set [1] (Mus musculus, read-out: Mice ED50 (mg/kg) PCP-Inh.) was determined as 15.2 mg/kg. Further, in data set [1] (mice), the “inhibition … in mice (in words)” value is “inhibited”. The EC50 in data set [2] was 35.5 nM.
The compound `FC(F)(F)c1c(N2CCC(c3ccccc3)CC2)ccn2c(CCC3CC3)nnc12` [compound 123, 8-Trifluoromethyl-3-(2′-cyclopropyl)ethyl-7-(4-phenylpiperidin-1-yl)-[1,2,4]triazolo[4,3-a]pyridine] showed a melting point of 300 °C. Moreover, in data set [2], the EC50 was 40.7 nM.
As to `Clc1c(N2CCC(c3ccccc3)CC2)ccn2c(CC3CC3)nnc12` [compound 26, 8-Chloro-3-cyclopropylmethyl-7-[4-phenyl-piperidin-1-yl]-[1,2,4]triazolo[4,3-a]pyridine], the melting point turned out to be 194.1 °C. In addition, the “GTPγS - hR2 PAM pEC50” value in data set [2] stood at 6.99.
On to `Fc1ccc(N2CCN(Cc3ccn4c(CC5CC5)nnc4c3C(F)(F)F)CC2)c(F)c1` [compound 224, 3-(Cyclopropylmethyl)-7-[[4-(2,4-difluorophenyl)-1-piperazinyl]methyl]-8-(trifluoromethyl)-1,2,4-triazolo[4,3-a]pyridine], for which, in data set [3], the “inhibition of the conditioned avoidance response in rats (in words)” value is “inhibited” and the ED50 is 5 mg/kg. Besides, in data set [1] (mice), the “inhibition … in mice (in words)” value is reported as “inhibited”. Moreover, the “Mice ED50 … (footnote a)” value in data set [1] (setting [4]) is listed as 2.0 ^a) mg/kg.
Consider `FC(F)(F)c1c(N2CCN(c3ccccc3)C3(CC3)C2)ccn2c(CC3CC3)nnc12` [compound 121, 1′-[3-cyclopropylmethyl-8-(trifluoromethyl)[1,2,4]triazolo[4,3-a]pyridin-7-yl]-4-phenyl-4,7-diaza-spiro[2.5]octane], for which the melting point worked out at 218.4 °C. In addition, in data set [2], the EC50 is 234 nM.
The compound `FC(F)(F)Cc1nnc2c(Cl)c(N3CCC4(CC3)OCc3ccccc34)ccn12` [compound 8] displayed a melting point of over 300 °C. Also, in data set [2], the EC50 was 97.7 nM.
The matching figures for `CCc1c(N2CCC(c3ccccc3)CC2)ccn2c(CC3CC3)nnc12` [compound 171, 3-Cyclopropylmethyl-8-ethyl-7-(4-phenylpiperidin-1-yl)-[1,2,4]triazolo[4,3-a]pyridine]: over 300 °C and 251 nM.
Regarding `Cc1c(C2CCN(c3ccc(F)cc3F)CC2)ccn2c(CC3CC3)nnc12` [compound 204, 3-Cyclopropylmethyl-7-[1-(2,4-difluoro-phenyl)-piperidin-4-yl]-8-methyl-[1,2,4]triazolo[4,3-a]pyridine], the melting point came to 283.5 °C. Also, the EC50 in data set [2] is 1350 nM.
Taken in the same sequence, the figures for `Clc1c(N2CCC3(CC2)OCc2ccccc23)ccn2c(CC3CC3)nnc12` [compound 6, 1′-[8-Chloro-3-(cyclopropylmethyl)-1,2,4-triazolo[4,3-a]pyridin-7-yl]-spiro[isobenzofuran-1(3H),4′piperidine]] were 194.5 °C and 129 nM.
`Clc1c(CN2CCC(c3ccccc3)CC2)ccn2c(CC3CC3)nnc12` [compound 1, 8-Chloro-3-cyclopropylmethyl-7-[(4-phenyl-1-piperidinyl)methyl]-1,2,4-triazolo[4,3-a]pyridine]: the melting point was 181.8 °C. Besides, the EC50 in data set [2] is 209 nM.
The matching figures for `C[C@@H]1CN(c2ccn3c(CC4CC4)nnc3c2C(F)(F)F)CCN1c1cc(F)cc(F)c1` [compound 182, 3-(Cyclopropylmethyl)-7-((3R)-4-3,5-difluorophenyl-3-methylpiperazin-1-yl)-(8-trifluoromethyl)-1,2,4-triazolo[4,3-a]pyridine]: 147.5 °C and 93.3 nM.
Consider `FC(F)(F)c1c(N2CCN(c3ccccc3)CC2)ccn2c(CC3CC3)nnc12` [compound 76], for which the “ED50 (mg/kg) CAR-Inh.” value in data set [3] (compound administered orally (*); a)/b) = estimated ED50 values) was ≥40* mg/kg. Further, the “inhibition … in mice (in words)” value in data set [1] (mice) is reported as “inhibited”. Moreover, the “Mice ED50 (mg/kg) PCP-Inh.” value in data set [1] (mice, inhibition of PCP-induced hyperlocomotion, dose at which 50% of the tested animals show the effect) is reported as 3.1^ mg/kg. Also, the “GTPγS - hR2 PAM pEC50” value in data set [2] came out at 6.93.
In turn, `FC(F)(F)Cc1nnc2c(Cl)c(N3CCC4(CC3)COc3ccccc34)ccn12` [compound 16, 1′-[8-Chloro-3-(2,2,2-trifluoroethyl)[1,2,4]triazolo[4,3-a]pyridin-7-yl]-spiro[1-benzofuran-3,4′-piperidine]] came in with a melting point of 269.1 °C. In addition, the EC50 in data set [2] is 178 nM.
`FC(F)(F)c1c(N2CCC(c3ccccc3)CC2)ccn2c(Cc3ccccn3)nnc12` [compound 153, 8-Trifluoromethyl-3-(2-pyridinylmethyl)-7-(4-phenylpiperidin-1-yl)-1,2,4-triazolo[4,3-a]pyridine]: the melting point is over 300 °C. Moreover, in data set [2], the EC50 is 195 nM.
`Cc1c(N2CCC(c3ccccc3)CC2)ccn2c(CC3CC3)nnc12` [compound 145, 3-Cyclopropylmethyl-8-methyl-7-(4-phenyl-piperidin-1-yl)-[1,2,4]triazolo[4,3-a]pyridine] had a melting point of over 300 °C. The EC50 in data set [2] is 417 nM.
In the case of `CC(c1ccn2c(CC3CC3)nnc2c1Cl)N1CCC(c2ccccc2)CC1` (centres unmarked) [compound 255], the melting point was determined as 182.1 °C. Besides, the EC50 in data set [2] was 166 nM.
Taken in the same sequence, the figures for `CC(C)OCc1nnc2c(C(F)(F)F)c(N3CCC(F)(c4ccccc4)CC3)ccn12` [compound 18, 7-(4-Fluoro-4-phenylpiperidin-1-yl)-3-[(1-methylethoxy)methyl]-8-(trifluoromethyl)[1,2,4]triazolo[4,3-a]pyridine] were 153.7 °C and 69.2 nM.
Taken in the same sequence, the figures for `Fc1cccc(F)c1N1CCN(Cc2ccn3c(CC4CC4)nnc3c2Cl)CC1` [compound 282] were 180.4 °C and 204 nM.
The compound `N#Cc1c(N2CCC(c3ccccc3)CC2)ccn2c(CN3CCOCC3)nnc12` [compound 11] returned a melting point of 300 °C. Besides, the EC50 in data set [2] was 7590 nM.
